target: T1, Adrenergic receptor alpha-2 (Rattus norvegicus, UniProt P22086+P19328+P22909); test: Displacement of [3H]clonidine from Sprague-Dawley rat cortex adrenergic alpha 2 receptor
T1 sequence (P22086 whole entry): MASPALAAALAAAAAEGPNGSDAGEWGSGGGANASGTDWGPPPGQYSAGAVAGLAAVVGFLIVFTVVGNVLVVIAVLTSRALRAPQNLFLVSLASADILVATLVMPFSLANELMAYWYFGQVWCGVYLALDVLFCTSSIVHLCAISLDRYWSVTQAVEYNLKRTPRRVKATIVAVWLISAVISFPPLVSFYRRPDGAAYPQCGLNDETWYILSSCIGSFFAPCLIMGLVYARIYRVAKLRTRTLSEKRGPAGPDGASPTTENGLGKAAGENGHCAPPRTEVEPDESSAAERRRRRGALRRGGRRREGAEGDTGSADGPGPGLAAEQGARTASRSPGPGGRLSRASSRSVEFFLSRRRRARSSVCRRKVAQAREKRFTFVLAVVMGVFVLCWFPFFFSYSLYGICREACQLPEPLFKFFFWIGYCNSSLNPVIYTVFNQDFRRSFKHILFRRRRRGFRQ
T1 sequence (P19328 whole entry): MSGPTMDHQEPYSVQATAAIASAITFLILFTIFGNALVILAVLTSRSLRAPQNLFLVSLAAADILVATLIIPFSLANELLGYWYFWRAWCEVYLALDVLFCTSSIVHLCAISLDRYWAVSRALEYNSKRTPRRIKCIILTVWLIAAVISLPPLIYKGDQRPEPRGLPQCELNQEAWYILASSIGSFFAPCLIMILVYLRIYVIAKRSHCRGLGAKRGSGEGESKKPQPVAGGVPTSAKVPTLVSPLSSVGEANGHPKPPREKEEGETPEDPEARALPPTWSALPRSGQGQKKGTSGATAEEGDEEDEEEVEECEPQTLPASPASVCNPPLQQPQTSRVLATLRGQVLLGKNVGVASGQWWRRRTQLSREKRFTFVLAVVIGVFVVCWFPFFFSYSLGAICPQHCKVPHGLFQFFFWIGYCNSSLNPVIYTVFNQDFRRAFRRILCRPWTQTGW
T1 sequence (P22909 whole entry): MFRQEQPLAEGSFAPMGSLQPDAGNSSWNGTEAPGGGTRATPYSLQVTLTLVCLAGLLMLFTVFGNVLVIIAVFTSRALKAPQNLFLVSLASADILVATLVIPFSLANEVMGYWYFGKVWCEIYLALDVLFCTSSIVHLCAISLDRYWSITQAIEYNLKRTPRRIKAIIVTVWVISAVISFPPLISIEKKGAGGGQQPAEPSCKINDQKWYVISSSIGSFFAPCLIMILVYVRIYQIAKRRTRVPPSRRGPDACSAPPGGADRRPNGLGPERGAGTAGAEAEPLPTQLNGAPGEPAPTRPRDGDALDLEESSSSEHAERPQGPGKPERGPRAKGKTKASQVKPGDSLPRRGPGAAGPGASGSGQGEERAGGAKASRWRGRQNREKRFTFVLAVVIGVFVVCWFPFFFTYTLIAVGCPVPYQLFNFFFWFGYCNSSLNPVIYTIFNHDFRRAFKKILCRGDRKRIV

| Compound | Ki [µM] |
| --- | --- |
| O=S(=O)(CCCC(F)(F)F)c1ccc2c(c1)CNC(CF)C2 (stereo not given) | > 1000 |
| CCCCS(=O)(=O)c1ccc2c(c1)CNC(CF)C2 (stereo not given) | 540 |
| O=S(=O)(Cc1ccc(Cl)cc1)c1ccc2c(c1)CNC(CF)C2 (stereo not given) | > 1000 |

Next, values leading:

| Ki [µM] | Compound |
| --- | --- |
| 1200 | COCCCS(=O)(=O)c1ccc2c(c1)CNC(CF)C2 (stereo not given) |
| 740 | O=S(=O)(CC(F)(F)F)c1ccc2c(c1)CNC(CF)C2 (stereo not given) |
| 1100 | CCS(=O)(=O)c1ccc2c(c1)CNC(CF)C2 (stereo not given) |
| > 1000 | O=S(=O)(CCC(F)(F)F)c1ccc2c(c1)CNC(CF)C2 (stereo not given) |
| 690 | CCCS(=O)(=O)c1ccc2c(c1)CNC(CF)C2 (stereo not given) |

tested on: not listed separately; test: Selectivity for human PNMT over rat Adrenergic alpha-2 receptor

| Compound | Selectivity ratio |
| --- | --- |
| c1ccc2c(c1)CCNC2 [1,2,3,4-TETRAHYDROISOQUINOLINE] | 0.06 |

target: T2, Phenylethanolamine N-methyltransferase (Homo sapiens, UniProt P11086); test: Binding affinity to human PNMT expressed in Escherichia coli by radiochemical assay
T2 sequence (P11086 whole entry): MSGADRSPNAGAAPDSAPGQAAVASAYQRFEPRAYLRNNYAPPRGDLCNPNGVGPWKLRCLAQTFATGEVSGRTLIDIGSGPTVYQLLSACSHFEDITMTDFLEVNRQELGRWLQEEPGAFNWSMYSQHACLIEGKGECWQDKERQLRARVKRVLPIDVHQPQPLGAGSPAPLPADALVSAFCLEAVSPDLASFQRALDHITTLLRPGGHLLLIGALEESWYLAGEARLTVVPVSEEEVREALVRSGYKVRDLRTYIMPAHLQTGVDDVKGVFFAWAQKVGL

| Compound | Ki [µM] |
| --- | --- |
| c1ccc2c(c1)CCNC2 [1,2,3,4-TETRAHYDROISOQUINOLINE] | 5.8 |

Source: ChEMBL document CHEMBL1149484, “Comparison of the binding of 3-fluoromethyl-7-sulfonyl-1,2,3,4-tetrahydroisoquinolines with their isosteric sulfonamides to the active site of phenylethanolamine N-methyltransferase” (J Med Chem, 2006)
